From patent US20120029187A1, “HALOALKYLSULFONANILIDE DERIVATIVE” (Nissan Chemical Industries, Ltd., priority 2009, published 2012)

Assays:
Assay type in all cases: in vivo
barnyardgrass [1] = experiment: Test Example 1: herbicidal effects in preemergence treatment under submerged conditions; details: dose 2.52 g/a
How it was run: (§1)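 Alluvial soil was flooded to 4 cm, sown with barnyardgrass, bulrush and ducksalad, and planted with 2.5-leaf rice seedlings. On the seeding day, water-diluted emulsifiable concentrates were applied to the water surface at set doses (g/a). After three weeks in a 25 to 30° C. greenhouse, mortality was scored 0–5.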

bulrush [2] = experiment: as above; details: dose 2.52 g/a
How it was run: as §1

ducksalad [3] = experiment: as above; details: dose 2.52 g/a
How it was run: as §1

transplanted rice = experiment: Test Example 1: preemergence treatment under submerged conditions, effect on crop; details: dose 2.52 g/a
How it was run: as §1

barnyardgrass [4] = experiment: Test Example 2: herbicidal effects during the vegetation period under submerged conditions; details: treatment during the vegetation period under submerged conditions; dose 2.52 g/a
How it was run: (§2)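 Barnyardgrass, bulrush and ducksalad were co-sown in alluvial soil flooded to 4 cm and grown in a greenhouse at 25 to 30° C. At the 1- or 2-leaf stage, water-diluted emulsifiable concentrates went onto the water surface at set doses (g/a). Herbicidal effect was scored three weeks later on a graded scale.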

bulrush [5] = experiment: as above; details: treatment during the vegetation period under submerged conditions; dose 2.52 g/a
How it was run: as §2

ducksalad [6] = experiment: as above; details: treatment during the vegetation period under submerged conditions; dose 2.52 g/a
How it was run: as §2

Italian ryegrass [7] = experiment: Test Example 3: herbicidal effects in soil treatment; details: dose 3.2 g/a
How it was run: (§3)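 Seeds were sown in sterilized diluvial soil and covered with about 1.5 cm of soil. Compounds, formulated as emulsifiable concentrates and diluted with water, were sprayed evenly over the soil surface at set doses in g/a. Herbicidal effect was scored on a rating scale three weeks later.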

barnyardgrass [8] = experiment: as above; details: dose 3.2 g/a
How it was run: as §3

common chickweed [9] = experiment: as above; details: dose 3.2 g/a
How it was run: as §3

common lambsquater [10] = experiment: as above; details: dose 3.2 g/a
How it was run: as §3

common ragweed [11] = experiment: as above; details: dose 3.2 g/a
How it was run: as §3

giant foxtail [12] = experiment: as above; details: dose 3.2 g/a
How it was run: as §3

large crabgrass [13] = experiment: as above; details: dose 3.2 g/a
How it was run: as §3

posumbu knotweed [14] = experiment: as above; details: dose 3.2 g/a
How it was run: as §3

redroot pigweed [15] = experiment: as above; details: dose 3.2 g/a
How it was run: as §3

water foxtail [16] = experiment: as above; details: dose 3.2 g/a
How it was run: as §3

wild oat [17] = experiment: as above; details: dose 3.2 g/a
How it was run: as §3

Italian ryegrass [18] = experiment: Test Example 4: herbicidal effect in foliage treatment; details: dose 3.2 g/a, three weeks after application
How it was run: (§4)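 Visual herbicidal scores on a graded scale were recorded three weeks after foliar application. Compounds went on as diluted emulsifiable concentrates at predetermined g/a to plants grown 14 days in a 25 to 30° C greenhouse.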

barnyardgrass [19] = experiment: as above; details: dose 3.2 g/a, three weeks after application
How it was run: as §4

beadstraw = experiment: as above; details: dose 3.2 g/a, three weeks after application
How it was run: as §4

common chickweed [20] = experiment: as above; details: dose 3.2 g/a, three weeks after application
How it was run: as §4

common lambsquater [21] = experiment: as above; details: dose 3.2 g/a, three weeks after application
How it was run: as §4

common ragweed [22] = experiment: as above; details: dose 3.2 g/a, three weeks after application
How it was run: as §4

giant foxtail [23] = experiment: as above; details: dose 3.2 g/a, three weeks after application
How it was run: as §4

large crabgrass [24] = experiment: as above; details: dose 3.2 g/a, three weeks after application
How it was run: as §4

posumbu knotweed [25] = experiment: as above; details: dose 3.2 g/a, three weeks after application
How it was run: as §4

redroot pigweed [26] = experiment: as above; details: dose 3.2 g/a, three weeks after application
How it was run: as §4

velvetleaf [27] = experiment: as above; details: dose 3.2 g/a, three weeks after application
How it was run: as §4

water foxtail [28] = experiment: as above; details: dose 3.2 g/a, three weeks after application
How it was run: as §4

wild oat [29] = experiment: as above; details: dose 3.2 g/a, three weeks after application
How it was run: as §4

velvetleaf [30] = experiment: Test Example 3: herbicidal effects in soil treatment; details: dose 3.2 g/a
How it was run: as §3

## CC(C)(C)COC(=O)N(c1ccccc1CN1COC(C)(C)CC1=O)S(=O)(=O)C(F)(F)F [II-27]
Barnyardgrass [1]
  A: barnyardgrass, herbicidal effect (evaluation scale 0-5): 5 (mortality of 90% or above (nearly complete death))
Bulrush [2]
  B: bulrush, herbicidal effect (evaluation scale 0-5): 5 (mortality of 90% or above (nearly complete death))
Ducksalad [3]
  C: ducksalad, herbicidal effect (evaluation scale 0-5): 5 (mortality of 90% or above (nearly complete death))
Transplanted rice
  a: transplanted rice, effect on crop (evaluation scale 0-5): 0 (mortality of less than 5% (almost ineffective))
Barnyardgrass [4]
  A: barnyardgrass, herbicidal effect (evaluation scale 0-5): 5 (mortality of 90% or above (nearly complete death))
Bulrush [5]
  B: bulrush, herbicidal effect (evaluation scale 0-5): 5 (mortality of 90% or above (nearly complete death))
Ducksalad [6]
  C: ducksalad, herbicidal effect (evaluation scale 0-5): 5 (mortality of 90% or above (nearly complete death))
Italian ryegrass [7]
  H: Italian ryegrass, herbicidal effect (evaluation scale 0-5): 3 (mortality of at least 40% and less than 70%)
Barnyardgrass [8]
  A: barnyardgrass, herbicidal effect (evaluation scale 0-5): 5 (mortality of 90% or above (nearly complete death))
Common chickweed [9]
  N: common chickweed, herbicidal effect (evaluation scale 0-5): 4 (mortality of at least 70% and less than 90%)
Common lambsquater [10]
  L: common lambsquater, herbicidal effect (evaluation scale 0-5): 0 (mortality of less than 5% (almost ineffective))
Common ragweed [11]
  J: common ragweed, herbicidal effect (evaluation scale 0-5): 4 (mortality of at least 70% and less than 90%)
Giant foxtail [12]
  E: giant foxtail, herbicidal effect (evaluation scale 0-5): 4 (mortality of at least 70% and less than 90%)
Large crabgrass [13]
  D: large crabgrass, herbicidal effect (evaluation scale 0-5): 5 (mortality of 90% or above (nearly complete death))
Posumbu knotweed [14]
  M: posumbu knotweed, herbicidal effect (evaluation scale 0-5): 3 (mortality of at least 40% and less than 70%)
Redroot pigweed [15]
  K: redroot pigweed, herbicidal effect (evaluation scale 0-5): 0 (mortality of less than 5% (almost ineffective))
Water foxtail [16]
  G: water foxtail, herbicidal effect (evaluation scale 0-5): 5 (mortality of 90% or above (nearly complete death))
Wild oat [17]
  F: wild oat, herbicidal effect (evaluation scale 0-5): 0 (mortality of less than 5% (almost ineffective))
Italian ryegrass [18]
  H: Italian ryegrass, herbicidal effect: 3 (mortality of at least 40% and less than 70%)
Barnyardgrass [19]
  A: barnyardgrass, herbicidal effect: 5 (mortality of 90% or above (nearly complete death))
beadstraw
  O: beadstraw, herbicidal effect: 4 (mortality of at least 70% and less than 90%)
Common chickweed [20]
  N: common chickweed, herbicidal effect: 3 (mortality of at least 40% and less than 70%)
Common lambsquater [21]
  L: common lambsquater, herbicidal effect: 3 (mortality of at least 40% and less than 70%)
Common ragweed [22]
  J: common ragweed, herbicidal effect: 4 (mortality of at least 70% and less than 90%)
Giant foxtail [23]
  E: giant foxtail, herbicidal effect: 3 (mortality of at least 40% and less than 70%)
Large crabgrass [24]
  D: large crabgrass, herbicidal effect: 4 (mortality of at least 70% and less than 90%)
Posumbu knotweed [25]
  M: posumbu knotweed, herbicidal effect: 3 (mortality of at least 40% and less than 70%)
Redroot pigweed [26]
  K: redroot pigweed, herbicidal effect: 0 (mortality of less than 5% (almost ineffective))
Velvetleaf [27]
  I: velvetleaf, herbicidal effect: 5 (mortality of 90% or above (nearly complete death))
Water foxtail [28]
  G: water foxtail, herbicidal effect: 3 (mortality of at least 40% and less than 70%)
Wild oat [29]
  F: wild oat, herbicidal effect: 0 (mortality of less than 5% (almost ineffective))

## CC1(C)CN(Cc2ccccc2NS(=O)(=O)C(F)(F)F)C(=O)CO1 [Compound I-15]
Barnyardgrass [1]
  A: barnyardgrass, herbicidal effect (evaluation scale 0-5): 5 (mortality of 90% or above (nearly complete death))
Bulrush [2]
  B: bulrush, herbicidal effect (evaluation scale 0-5): 5 (mortality of 90% or above (nearly complete death))
Ducksalad [3]
  C: ducksalad, herbicidal effect (evaluation scale 0-5): 5 (mortality of 90% or above (nearly complete death))
Transplanted rice
  a: transplanted rice, effect on crop (evaluation scale 0-5): 1 (mortality of at least 5% and less than 20%)
Barnyardgrass [4]
  A: barnyardgrass, herbicidal effect (evaluation scale 0-5): 5 (mortality of 90% or above (nearly complete death))
Bulrush [5]
  B: bulrush, herbicidal effect (evaluation scale 0-5): 5 (mortality of 90% or above (nearly complete death))
Ducksalad [6]
  C: ducksalad, herbicidal effect (evaluation scale 0-5): 5 (mortality of 90% or above (nearly complete death))
Italian ryegrass [7]
  H: Italian ryegrass, herbicidal effect (evaluation scale 0-5): 5 (mortality of 90% or above (nearly complete death))
Barnyardgrass [8]
  A: barnyardgrass, herbicidal effect (evaluation scale 0-5): 5 (mortality of 90% or above (nearly complete death))
Common chickweed [9]
  N: common chickweed, herbicidal effect (evaluation scale 0-5): 4 (mortality of at least 70% and less than 90%)
Common lambsquater [10]
  L: common lambsquater, herbicidal effect (evaluation scale 0-5): 4 (mortality of at least 70% and less than 90%)
Common ragweed [11]
  J: common ragweed, herbicidal effect (evaluation scale 0-5): 5 (mortality of 90% or above (nearly complete death))
Giant foxtail [12]
  E: giant foxtail, herbicidal effect (evaluation scale 0-5): 3 (mortality of at least 40% and less than 70%)
Large crabgrass [13]
  D: large crabgrass, herbicidal effect (evaluation scale 0-5): 5 (mortality of 90% or above (nearly complete death))
Redroot pigweed [15]
  K: redroot pigweed, herbicidal effect (evaluation scale 0-5): 5 (mortality of 90% or above (nearly complete death))
Velvetleaf [30]
  I: velvetleaf, herbicidal effect (evaluation scale 0-5): 5 (mortality of 90% or above (nearly complete death))
Water foxtail [16]
  G: water foxtail, herbicidal effect (evaluation scale 0-5): 5 (mortality of 90% or above (nearly complete death))
Wild oat [17]
  F: wild oat, herbicidal effect (evaluation scale 0-5): 3 (mortality of at least 40% and less than 70%)
Italian ryegrass [18]
  H: Italian ryegrass, herbicidal effect: 4 (mortality of at least 70% and less than 90%)
Barnyardgrass [19]
  A: barnyardgrass, herbicidal effect: 5 (mortality of 90% or above (nearly complete death))
beadstraw
  O: beadstraw, herbicidal effect: 4 (mortality of at least 70% and less than 90%)
Common chickweed [20]
  N: common chickweed, herbicidal effect: 4 (mortality of at least 70% and less than 90%)
Common lambsquater [21]
  L: common lambsquater, herbicidal effect: 3 (mortality of at least 40% and less than 70%)
Common ragweed [22]
  J: common ragweed, herbicidal effect: 4 (mortality of at least 70% and less than 90%)
Giant foxtail [23]
  E: giant foxtail, herbicidal effect: 4 (mortality of at least 70% and less than 90%)
Large crabgrass [24]
  D: large crabgrass, herbicidal effect: 4 (mortality of at least 70% and less than 90%)
Posumbu knotweed [25]
  M: posumbu knotweed, herbicidal effect: 4 (mortality of at least 70% and less than 90%)
Redroot pigweed [26]
  K: redroot pigweed, herbicidal effect: 3 (mortality of at least 40% and less than 70%)
Velvetleaf [27]
  I: velvetleaf, herbicidal effect: 5 (mortality of 90% or above (nearly complete death))
Water foxtail [28]
  G: water foxtail, herbicidal effect: 5 (mortality of 90% or above (nearly complete death))
Wild oat [29]
  F: wild oat, herbicidal effect: 1 (mortality of at least 5% and less than 20%)
